Reference: PMC6535779, “A Specific, Glycomimetic Langerin Ligand for Human Langerhans Cell Targeting” (ACS Central Science, 2019)

Biological target: T1, DC-SIGN CRD (Homo sapiens, UniProt Q9NNX6)
T1 construct: with the DC-SIGN CRD were performed at a receptor concentration of 50 μM; made in house
T1 sequence (Q9NNX6 263-378 limits assumed): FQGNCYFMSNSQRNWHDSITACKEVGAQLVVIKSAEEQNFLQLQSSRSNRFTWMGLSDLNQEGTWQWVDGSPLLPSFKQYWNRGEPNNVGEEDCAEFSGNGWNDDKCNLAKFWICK
Test: 19F R2-filtered NMR reporter displacement assay with DC-SIGN
Format: binding
Settings: for Ki: 19F R2-filtered NMR, DC-SIGN CRD, pH 7.0, 25 °C; for specificity: Table 1, Langerin against DC-SIGN
Text: Figure S7. 19F R2-filtered NMR assay development with DC-SIGN. […]
substantial line broadeni ng. This phenomenon was utilized to develop the 19F R2-filtered NMR reporter displacement assay following the procedure previously published for Langerin 3. The spectrum in absence of DC -SIGN is processed with an exponential apodization function at 1.8 Hz. b. The interaction between 24 and DC-SIGN was quantified via the transversal relaxation rate R2,obs using the CPMG pulse sequence4-5. Representative decay curves in the presence of DC-SIGN are shown. c. The Ca2+-dependency of the interaction was validated via addition of EDTA. The R2,obs value in absence of DC-SIGN was determined from four independent experiments. The standard error for the experiments in presence of DC-SIGN and EDTA is derived directly from the fitting procedure. d. Relaxation dispersion experiments for 24 in presence of DC-SIGN indicate at negligible exchange contribution R2,ex at a νCPMG value of 500 Hz. In contrast to Langerin, a considerable exchange contribution is observed a lower νCPMG values. e. A representative binding isotherm for the affinity determination for 24 is shown. The KD value was determined from three independent titrations. The obtained K D and additional parameters from the fitting procedure are given in Tab le S3.
(1 picture or pasted object on this page, not shown here)
Receptor Expression and Purification
General remarks. Codon-optimized genes for the expression of Langerin and DC-SIGN in E. coli were purchased from GenScript and Life Technologies, respectively. All growth media or chemicals used for receptor expression and purification were purchased from Carl Roth if not stated otherwise. […]
Langerin and DC-SIGN carbohydrate recognition domain. Expression and purification were conducted as previously published14. Briefly, the monomeric 15N-labeled Langerin and DC-SIGN carbohydrate recognition domains (CRDs) were expressed insolubly in E. coli BL21* (DE3) (Invitrogen). Following enzymatic cell lysis, inclusion bodies were harvested and subsequently solubilized. The sample was centrifuged and the Langerin and DC-SIGN CRDs were refolded overnight via rapid dilution. Next, the sample was dialyzed overnight, centrifuged and purified via StrepTactin affinity chromatography (Iba). After an additional dialysis step overnight, the sample was centrifuged and the buffer was exchanged to 25 mM HEPES with 150 mM NaCl at pH 7.0 using 7 kDa size-exclusion desalting columns (Thermo Scientific) for 19F R2-filtered and 15N HSQC NMR experiments. The concentration of Langerin and DC -SIGN CRDs was determined via UV spectroscopy (A280, 0.1% = 3.19 and A280, 0.1% = 2.98). Purity and monodispersity of Langerin and DC - SIGN CRD samples were analyzed via SDS PAGE and DLS.
General remarks. 19F R2-filtered NMR experiments were conducted on a PremiumCompact 600 MHz spectrometer (Agilent). Spectra were processed in MestReNova and data analysis was performed with OriginPro 13, 15. Experiments with the Langerin ECD were performed at a receptor concentration of 50 μM in 25 mM Tris with 10% D2O, 150 mM NaCl and 5 mM CaCl2 at pH 7.8 and 25° C. Experiments […]
with the DC-SIGN CRD were performed at a receptor concentration of 50 μM in 25 mM HEPES with 10% D2O, 150 mM NaCl and 5 mM CaCl2 at pH 7.0 and 25°C. TFA served as an internal reference at a concentration of 50 μM. Apparent relaxation rates R2,obs for the reporter ligand were determined using the CPMG pulse sequence as previously published3-5.
Assay development for DC-SIGN. The 19F R2-filtered NMR reporter displacement assay for DC-SIGN was developed following the procedure previously published for Langerin3. Briefly, the KD value and the relaxation rate in bound state R2,b were determined at five concentrations [L]T of reporter ligand 24 in three independent titration experiments. Samples were prepared via serial dilution. The addition of 10 mM EDTA served to validate the Ca2+-dependency of the interaction between DC-SIGN and the reporter ligand. […]

| Ki [mM] | specificity (from KI values) | specificity for DC-SIGN over Langerin (from KI values) [fold] | specificity for Langerin against DC-SIGN (from KI values) [fold] | Structure (SMILES) |
| --- | --- | --- | --- | --- |
| 17 ± 1 | 53 |  |  | Cc1ccc(S(=O)(=O)N[C@H]2C(O)O[C@H](CO)[C@@H](O)[C@@H]2O)cc1 (some centres unmarked) [compound 2] |
| 2.7 ± 0.3 | 0.27 | 3.7 |  | CC(=O)NCCO[C@H]1O[C@H](CO)[C@@H](O)[C@H](O)[C@@H]1O [compound 21] |
| 15 ± 3 | 63 |  | 63 | CC(=O)NCCO[C@@H]1O[C@H](CO)[C@@H](O)[C@H](O)[C@H]1NS(=O)(=O)c1ccc(C)cc1 [compound 16] |
